According to patent publication US20250161404A1, “METHODS AND COMPOSITIONS FOR THE CONTROL OF INFLAMMATION IN SKIN DISEASE” (VANDERBILT UNIVERSITY, priority 2023, published 2025):
Values after ≈ are worked out from the molar mass of the structure shown. Where a SMILES comes first, the peptide text is derived from it. Bridges are numbered along the chain shown (N, C = ends).

Key:
[1] = Cell viability of cultured human keratinocytes; type: cell-based; conditions: in all conditions, 48 hours after TNF-α/IL-17 challenge
[2] = long-term NTCI treatment; cited from earlier work
[3] = Solubility of the peptide; type: physicochemical; conditions: cSN50: depending on the method of synthesis and purification; read-out: soluble at levels of
Method: cSN50.1 is a cyclized peptide having the sequence of cSN50 with the exception that the tyrosine at position 18 of cSN50, adjacent to the first cysteine, has been removed. Methods of making and using cSN50 are described, for example, in U.S. Pat. Nos. 7,553,929 and 6,495,518. The amino acid sequence of cSN50.1 is […] (SEQ ID NO: 2). The tyrosine at position 18 was removed from the sequence of cSN50 to increase solubility. cSN50 is soluble at levels of ranging from 2.0 mg/mL to 40 mg/mL depending on the method of synthesis and purification whereas cSN50.1 is soluble at levels of at least 100 mg/ml. Any mimetics, derivatives, or homologs of cSN50.1 may be used in the compositions, methods, and kits disclosed herein. cSN50.1 is also encompassed by SEQ ID NO: 3, SEQ ID NO: 4 and SEQ ID NO: 5. Additional examples of NTMs include fragment-designed and synthesized peptides in which cargo is incorporated as two, rather than one, modules or cargos derived from intracellular proteins other than NFκB 1. Such additional examples include the sequences of SEQ ID NO: 6, SEQ ID NO: 7, SEQ ID NO: 8, and SEQ ID NO: 9.

[4] = molecular target: Imp beta (Homo sapiens, UniProt Q14974); assay: Cell culture and preclinical studies (Table 3 comment)
Imp beta, sequence (Q14974 whole entry): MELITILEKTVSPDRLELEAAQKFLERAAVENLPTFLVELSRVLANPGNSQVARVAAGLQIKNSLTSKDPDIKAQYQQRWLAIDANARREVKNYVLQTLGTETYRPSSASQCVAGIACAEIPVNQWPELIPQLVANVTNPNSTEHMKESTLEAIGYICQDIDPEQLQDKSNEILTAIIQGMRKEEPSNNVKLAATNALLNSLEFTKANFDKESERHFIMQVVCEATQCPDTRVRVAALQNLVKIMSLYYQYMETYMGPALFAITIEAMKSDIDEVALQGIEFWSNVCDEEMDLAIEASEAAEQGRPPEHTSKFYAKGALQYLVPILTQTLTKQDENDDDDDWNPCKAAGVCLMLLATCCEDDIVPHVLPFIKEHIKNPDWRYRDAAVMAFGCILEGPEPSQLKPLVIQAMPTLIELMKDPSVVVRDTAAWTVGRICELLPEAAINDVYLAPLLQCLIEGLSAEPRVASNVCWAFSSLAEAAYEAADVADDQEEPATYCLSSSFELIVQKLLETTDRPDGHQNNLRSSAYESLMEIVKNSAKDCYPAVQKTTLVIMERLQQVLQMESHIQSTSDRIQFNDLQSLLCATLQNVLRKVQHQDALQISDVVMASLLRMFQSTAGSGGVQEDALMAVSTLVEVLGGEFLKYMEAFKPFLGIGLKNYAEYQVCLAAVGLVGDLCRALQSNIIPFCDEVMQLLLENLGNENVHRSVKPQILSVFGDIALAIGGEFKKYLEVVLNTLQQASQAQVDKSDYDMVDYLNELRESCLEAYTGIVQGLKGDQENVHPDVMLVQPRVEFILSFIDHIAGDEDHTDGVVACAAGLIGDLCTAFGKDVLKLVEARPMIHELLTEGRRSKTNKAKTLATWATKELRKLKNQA

[5] = molecular target: Importin beta (Homo sapiens, UniProt Q14974); assay: Binding studies (Table 3 comment)
Importin beta, sequence (Q14974 whole entry): as above

In the case of `CSCC[C@@H]1NC(=O)[C@H](CC(C)C)NC(=O)[C@H](CCCCN)NC(=O)[C@H](CCC(N)=O)NC(=O)[C@H](CCCNC(=N)N)NC(=O)[C@H](CCCCN)NC(=O)[C@H](CCCNC(=N)N)NC(=O)[C@H](CCC(N)=O)NC(=O)[C@H](C(C)C)NC(=O)[C@@H](NC(=O)[C@@H]2CCCN2C(=O)[C@H](C)NC(=O)[C@H](CC(C)C)NC(=O)[C@H](CC(C)C)NC(=O)[C@H](C)NC(=O)[C@H](CC(C)C)NC(=O)[C@H](CC(C)C)NC(=O)[C@@H](NC(=O)[C@H](C)NC(=O)[C@@H]2CCCN2C(=O)[C@H](CC(C)C)NC(=O)[C@H](CC(C)C)NC(=O)[C@H](C)NC(=O)[C@@H](NC(=O)[C@H](C)NC(=O)[C@H](C)N)C(C)C)C(C)C)CSSC[C@@H](C(=O)O)NC(=O)[C@@H]2CCCN2C1=O` [cSN50.1] (H-AAVALLPAVLLALLAPCVQRKRQKLMPC-OH; disulfide 17-28; N-terminus and C-terminus assumed), the viability at 48 h [1] is given as greater than 80%, the apparent toxicity [2] is given as “lack of apparent toxicity” and the solubility [3] is given as no less than 100 mg/mL.
With `CSCC[C@@H]1NC(=O)[C@H](CC(C)C)NC(=O)[C@H](CCCCN)NC(=O)[C@H](CCC(N)=O)NC(=O)[C@H](CCCNC(=N)N)NC(=O)[C@H](CCCCN)NC(=O)[C@H](CCCNC(=N)N)NC(=O)[C@H](CCC(N)=O)NC(=O)[C@H](C(C)C)NC(=O)[C@H](Cc2ccc(O)cc2)NC(=O)[C@@H](NC(=O)[C@@H]2CCCN2C(=O)[C@H](C)NC(=O)[C@H](CC(C)C)NC(=O)[C@H](CC(C)C)NC(=O)[C@H](C)NC(=O)[C@H](CC(C)C)NC(=O)[C@H](CC(C)C)NC(=O)[C@@H](NC(=O)[C@H](C)NC(=O)[C@@H]2CCCN2C(=O)[C@H](CC(C)C)NC(=O)[C@H](CC(C)C)NC(=O)[C@H](C)NC(=O)[C@@H](NC(=O)[C@H](C)NC(=O)[C@H](C)N)C(C)C)C(C)C)CSSC[C@@H](C(=O)O)NC(=O)[C@@H]2CCCN2C1=O` [cSN50] (H-AAVALLPAVLLALLAPCYVQRKRQKLMPC-OH; disulfide 17-29; N-terminus and C-terminus assumed) the solubility [3] was 2 to 40 mg/mL (≈ 0.635 to 12.7 mM).
For AAVALLPAVLLALLAPCVQRDEQKLMPC [cSN50.1β], the “Comments: importin selectivity” value [4] was “Imp beta-selective”.
For “AAVALLPAVLLALLAPVQRDEQKLMP (Description of sequence: Peptide, name of peptide: SM12)”, the “Comments: importin selectivity” value [5] was “Importin beta-”.
